# Laboratory results reported in patent publication US8821891B2, “Live attenuated rotavirus vaccine for oral administration” (priority 2005, dated 2014).
# Where two headings read alike, the source gives them in different places.
# Legend:
# [1] = standard acid-base titration curve, FIG. 1
# [2] = cited from earlier work
Structure (SMILES),pKa (physchem),useful antacid capacity between pH 4.0 and pH 7.0 [1],also measured
"O=C(O)CC(O)C(=O)O (centres unmarked) [Malic, malic acid]",4.22,,
"O=C(O)/C=C\C(=O)O [Maleic, maleic acid]",4.07,,
O=C([O-])CC(O)(CC(=O)[O-])C(=O)[O-].[Na+].[Na+].[Na+] [sodium citrate],,57.70%,
CC(=O)[O-].[Na+] [sodium acetate],,68.75%,
"O=C(O)CCCCC(=O)O [Adipic, adipic acid]",4.91,,
"O=C(O)CCCC(=O)O [Glutaric, glutaric acid]",4.78,,
"CCC(=O)O [Propinic, propionic acid]",,,"Toxicity (LD50 oral, in rat) ([2]; oral): 2600 mg/kg"
O=C([O-])CC(O)C(=O)[O-].[Na+].[Na+] (centres unmarked) [sodium malate],,41.25%,
O=C([O-])CCCCC(=O)[O-].[Na+].[Na+] [sodium adipate],,72.50%,
"O=C(O)CCC(=O)O [Succinic, succinic acid]",4.9,,"Toxicity (LD50 oral, in rat) ([2]; in vivo, po): 2260 mg/kg"
